{
  "source": "patent US9988380B2",
  "about": "“Quorum sensing inhibitors” (priority 2013, dated 2018)",
  "key": {"rhlA-gfp(ASV) expression": {"system": "rhlA-gfp(ASV) expression", "assay": "Inhibition of the Rhl QS system, rhlA-gfp(ASV) reporter in PAO1 wild-type and lasR mutant", "assay_type": "cell-based, P. aeruginosa", "description": "(§1) Inhibition of the Rhl and PQS QS systems in wild-type PAO1 and PAO1 lasR mutant. Wild-type P. aeruginosa PAO1 strains harboring either the rhlA-gfp(ASV) reporter or the pqsA-gfp(ASV) reporter, and a P. aeruginosa PAO1 lasR mutant harboring either the rhlA-gfp(ASV) reporter or the pqsA-gfp(ASV) reporter were used for this experiment (Refer to FIG. 11 for strain information). Overnight cultures of these four strains were diluted 100-fold in ABTGC media within 96-well microtitre plates to a final volume of 200 μL per well. Each of the five QSIs was added in triplicate to a final concentration of 50 μM. 0.5% DMSO was used as a negative control. The microtitre plate was incubated at 37° C. in a Tecan Infinite 200 Pro plate reader where GFP and OD600 readings were measured at 15 min intervals.\n(§2) Effect of QSIs on Rhl and Pqs Quorum-Sensing Systems. In order to address the problem of the specificity of present compounds, the five identified QSI compounds were tested to see if they had any effect on the rhl and pqs systems. The five QSIs were tested against a PAO1 wild-type and a PAO1 lasR mutant harboring either the rhlA-gfp (ASV) bioreporter or the pqsA-gfp (ASV) bioreporter. The rhlA system is dependent on the RhlR/I system. By doing so, we were able to determine if a QSI is able to inhibit the other two QS systems (i.e. rhl and pqs) in a lasR-dependent/independent manner (FIG. 8)."}, "pqsA-gfp(ASV) expression": {"system": "pqsA-gfp(ASV) expression", "assay": "Inhibition of the PQS QS system, pqsA-gfp(ASV) reporter in PAO1 wild-type and lasR mutant", "assay_type": "cell-based, P. aeruginosa", "description": "as §1, §2"}, "[1]": {"system": "LasR-controlled GFP expression in P. aeruginosa PAO1 lasB-gfp(ASV) strain", "assay": "P. aeruginosa QS inhibition assay with lasB-gfp(ASV) reporter strain", "assay_type": "cell-based, Pseudomonas aeruginosa", "settings": "for effect on cell growth / inhibition of LasR-controlled GFP expression: P. aeruginosa lasB-gfp(ASV) strain; for effect on cell growth: OD600; for inhibition of LasR-controlled GFP expression: 0.78125-50 μM", "description": "P. aeruginosa QS inhibition assays. Test compounds were dissolved in 100% DMSO and mixed with ABTGC media, after which they were added to the first column of wells of a 96-well microtitre plate (Nunc) to give a final concentration of 100 μM in a final volume of 200 μl. 100 μL of ABTGC media was then added to the remaining wells in the plate and serial two-fold dilutions of the inhibitors were done by adding 100 μL of the preceding inhibitor-containing well to the subsequent one. The final column was left without inhibitor as a control. Next, an overnight culture of P. aeruginosa lasB-gfp(ASV) strain, grown in LB medium at 37° C. with shaking, was diluted to an optical density (OD) at 600 nm of 0.2, and 100 μl of bacterial suspension was added to each well of the microtitre plate. […] The microtitre plate was incubated at 37° C. in a Tecan Infinite 200 Pro plate reader (Tecan Group Ltd., Männedorf, Switzerland). GFP fluorescence (excitation at 485 nm, emission at 535 nm) and cell density (OD600) measurements were collected at 15 min intervals for at least 14 h. The P. aeruginosa Rhl and Pqs inhibition assays were performed in a similar manner to the LasR inhibition assay.\nInhibition Assay with the P. aeruginosa lasB-gfp(ASV) strain. In the preliminary screen, the 22 selected QSI candidates were screened for their ability to inhibit QS-controlled green fluorescent protein (GFP) expression in the P. aeruginosa lasB-gfp(ASV) strain. Elastase (encoded by the lasB gene) is a virulence factor that is controlled by LasR and therefore a good indicator for LasR activity. […] For ease of identification, each compound was designated a short compound identification code based on its well position in the shipment in place of its standard IUPAC name.\nThe dose-response curves of these 5 QSI candidates when incubated with the P. aeruginosa PAO1 lasB-gfp(ASV) strain are shown in FIG. 3. GFP expression, which was measured in relative fluorescence units, was normalized by dividing the GFP value by the corresponding OD600 value measured at that time-point. ‘Control’ refers to the PAO1 strain grown without the presence of QSI, and as expected, it had the highest GFP per OD values. For these five compounds, dose-dependent inhibition of lasB-gfp expression was observed, i.e. the higher the concentration of QSI that was present, the greater the inhibition of gfp expression.\nIC50 Value Comparisons of the Five QSI Candidates. The slope of the curve for each QSI was calculated based on its respective dose-response curves (from FIG. 3) and plotted against the log inhibitor concentration. The slope is indicative of the biosynthesis rate of GFP due to AHL induction. The half maximal inhibitory concentrations (IC50) of the five QSI candidates were calculated using the Graphpad Prism 6 software package (GraphPad Software Inc., CA, USA)."}, "protease IV": {"system": "protease IV", "settings": "cited from earlier work"}, "elastase (lasB; PA3724)": {"system": "elastase (lasB; PA3724)", "settings": "cited from earlier work"}},
  "data": [
    {"smiles": "NC(Cc1cccc(F)c1)C(=O)O", "note": "(racemic) [Compound F1, 2-amino-3-(3-fluorophenyl)propanoic acid]", "values": [
      {"measurement": "inhibition of rhlA-gfp expression", "setting": "rhlA-gfp(ASV) expression; PAO1 lasR mutant, 50 μM QSI", "value": 63.1, "unit": "%"},
      {"measurement": "inhibition of rhlA-gfp expression", "setting": "rhlA-gfp(ASV) expression; wild-type PAO1, 50 μM QSI", "value": 61.7, "unit": "%"},
      {"measurement": "inhibition of pqsA-gfp expression", "setting": "pqsA-gfp(ASV) expression; PAO1 lasR mutant, 50 μM QSI", "value": 39.4, "unit": "%"},
      {"measurement": "inhibition of pqsA-gfp expression", "setting": "pqsA-gfp(ASV) expression; wild-type PAO1, 50 μM QSI", "value": 25.4, "unit": "%"},
      {"measurement": "effect on cell growth", "setting": "[1]", "value": "without affecting cell growth"},
      {"measurement": "inhibition of LasR-controlled GFP expression", "setting": "[1]", "value": "inhibit LasR-controlled GFP expression in a dose-dependent manner"}
    ]},
    {"smiles": "NC(C(=O)O)C(O)c1ccccc1", "note": "(racemic) [Compound H1, 2-amino-3-hydroxy-3-phenylpropanoic acid]", "values": [
      {"measurement": "effect on cell growth", "setting": "[1]", "value": "without affecting cell growth"},
      {"measurement": "inhibition of LasR-controlled GFP expression", "setting": "[1]", "value": "inhibit LasR-controlled GFP expression in a dose-dependent manner"}
    ]},
    {"smiles": "O=[N+]([O-])c1cc[n+]([O-])cc1", "note": "[Compound 4-NPO, 4-nitropyridine-N-oxide]", "values": [
      {"measurement": "reduction of expression of protease IV", "setting": "protease IV", "value": "−20.7", "unit": "fold"},
      {"measurement": "reduction of expression of elastase", "setting": "elastase (lasB; PA3724)", "value": "−22.6", "unit": "fold"}
    ]},
    {"smiles": "O=c1[nH]cnc2[nH]nnc12", "note": "[Compound C1, 6-hydro-3H-1,2,3-triazolo[5,4-d]pyrimidin-7-one]", "values": [
      {"measurement": "IC50 of lasB-gfp expression, range in words", "setting": "[1]; P. aeruginosa PAO1 lasB-gfp(ASV)", "value": "high nanomolar range"},
      {"measurement": "effect on cell growth", "setting": "[1]", "value": "without affecting cell growth"},
      {"measurement": "inhibition of LasR-controlled GFP expression", "setting": "[1]", "value": "inhibit LasR-controlled GFP expression in a dose-dependent manner"}
    ]},
    {"smiles": "O=C1C=C2C(=CCOC2O)O1", "note": "(stereo not drawn) [patulin]", "values": [
      {"measurement": "reduction of expression of elastase", "setting": "elastase (lasB; PA3724)", "value": "−7", "unit": "fold"}
    ]},
    {"smiles": "C=C(C)C(=O)C(=CC(=O)O)OC", "note": "[penicillic acid]", "values": [
      {"measurement": "reduction of expression of elastase", "setting": "elastase (lasB; PA3724)", "value": "−12", "unit": "fold"}
    ]}
  ]
}
